One compound from patent US10675267B2, “Methods for detection and eradication of myeloid leukemia stem cells” (priority 2015, dated 2020) can be followed below.

Entries after “also recorded” stand apart in the source; their conditions may differ.

For series [1], the system named is AML LSC (CD34+ cells from AML primary samples). Put plainly: SL/M2 stromal co-culture with colony formation (survival) and replating (self-renewal) assays, AML. In kind it is cell-based, human. Particulars: two weeks SL/M2 co-culture, 0.1-10 μM, versus DMSO. The protocol:
(§1) In hypothesis-driven experiments, the splicing modulatory compound 17S-FD-895 was tested to determine efficacy in altering splicing activity in cell lines, and to evaluate effects on AML LSC survival and self-renewal capacity in humanized bone marrow stromal co-cultures and in PRIMAGRAFT™ AML LSC models. Cell culture experiments were performed using 293T and sAML (MOLM-13) cell lines, and SL and M2 bone marrow stromal cell lines. Animal studies were performed using immunocompromised Rag2−/−γc−/−[20] or NOD/SCID-IL2RG mice (Jackson Laboratory, Bar Harbor, Me.). Primary AML and normal control samples were used in in vitro hematopoietic stem and progenitor assays after bone marrow stromal co-culture and treatment with splicing modulatory compounds (FD-895 or 17S-FD-895) or vehicle control (DMSO). Colony formation potential and self-renewal capacity were assessed by counting colony numbers (survival) after two weeks of growth in semi-solid (methylcellulose) media, and subsequent replating capacity (self-renewal) was assessed after transfer to fresh methylcellulose for an additional two weeks of culture. Three primary AML samples were utilized to establish PRIMAGRAFT™ models in immunocompromised mice, and mice engrafted with cells from two of these models (AML-37 and AML-08) were treated with 17S-FD-895 or vehicle (DMSO) to evaluate changes in AML LSC survival and self-renewal capacity in vivo. Data were collected by flow cytometry and qRT-PCR analysis of CD34-selected human LSC-enriched cells from engrafted mice.
(§2) Bone marrow SL/M2 monolayers were established from freshly inactivated (irradiated) cells and then human CD34^+ cells selected from AML primary samples (n=8) and normal controls (CD34^+ cells from cord blood, CB, n=6; or aged bone marrow, n=6) were added. Survival and self-renewal of the CD34+ cells were investigated by methylcellulose-based colony and replating assays. Two SF3B1-targeted splicing modulators, FD-895 or 17S-FD-895, were added at the initiation of co-culture at concentrations ranging from 0.1 to 10 μM.
Mouse bone marrow stromal cell lines (SL and M2 mycoplasma-free authenticated cells obtained from ATCC) expressing human interleukin-3 (IL-3), stem cell factor (SCF) and granulocyte-colony stimulating factor (G-CSF), which support erythroid and myeloid cell expansion and differentiation, were maintained under standard culture conditions, as previously described. Briefly, SL cells were grown in complete medium containing DMEM (Corning), 10% FBS, 1% Glutamax, and 1% penicillin-streptomycin (Life Technologies), while M2 cells were grown in complete medium containing RPMI, 10% FBS, 1% Glutamax, and 1% penicillin-streptomycin (all from Life Technologies). Every four passages, cells were selected by addition of G418 and hygromycin to the culture media for one passage (3-4 days), to maintain human cytokine expression. All cell lines were maintained in T-25 or T-75 culture flasks and were passaged at dilutions of 1:5-1:10 every 2-4 days. Low passage aliquots of cells were thawed every two months to ensure consistency of experiments.
(§3) As previously described (Goff et al., 2013), humanized bone marrow SL/M2 monolayers were inactivated (irradiated) and then human CD34^+ cells selected from AML primary samples and normal controls were added for two weeks of co-culture, followed by methylcellulose-based colony and replating assays. FD-895 or 17S-FD-895 were added at the initiation of co-culture, with DMSO as a vehicle control.
Mouse bone marrow stromal cell lines (SL and M2 mycoplasma-free authenticated cells obtained from ATCC) expressing human interleukin-3 (IL-3), stem cell factor (SCF) and granulocyte-colony stimulating factor (G-CSF), which support erythroid and myeloid cell expansion and differentiation (Hogge et al., 1996), were maintained under standard culture conditions, as previously described (Goff et al., 2013). […]

The subject of series [2] is CD34+ cells from normal aged bone marrow. Put plainly: SL/M2 stromal co-culture with colony and replating assays, normal bone marrow. In kind it is cell-based, human. Particulars: normal aged bone marrow samples. The protocol:
as §1, §2, §3

As to `CCC(OC)C(C)C1OC1C(O)C(C)/C=C/C=C(\C)C1OC(=O)CC(O)CCC(C)(O)C(OC(C)=O)/C=C/C1C` (stereo not shown) [FD-895, reference compound], in series [1], the “AML LSC self-renewal (colony replating)” value is recorded as “dose-dependent reduction; also recorded: reduced AML LSC self-renewal” and the “AML LSC survival (colony formation)” value is given as “dose-dependent reduction; also recorded: reduced AML LSC survival”. For the same compound, in series [2], the “erythroid colony formation and self-renewal” value is listed as “not significantly changed; also recorded: no effect on erythroid colonies”; the “granulocyte-macrophage (myeloid) colony survival” value is listed as “slight decrease; also recorded: reduces myeloid colony formation”.
